Data: ChEMBL document CHEMBL1201862, “PubChem BioAssay data set” (2004)
The source made the active and inactive calls.

Assays:
[1] = HIV-1 Vif–A3G interaction blockers – biochemical, TR-FRET, GST-Vif 1-94, biotin-A3G peptide, dose response retest, primary screen (AID 1117319); format: functional;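 also: TR-FRET signal of purified GST-Vif binding a biotinylated A3G peptide; inhibitors lower the FRET signal by blocking Vif and A3G binding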
[2] = target: Heat shock protein HSP 90-alpha (Homo sapiens, UniProt P07900); assay: Luminescence-based dose response biochemical high throughput screening assay for inhibitors of the Heat Shock Protein 90 (HSP90). [Related pubchem assays: 1831 (Summary AID.), 1846 (Confirmation screen.), 1789 (Primary screen.)]
INS1 = assay: INS-1E survival protection against cytokine death – cell-based, luminescence, retest, dose response (AID 449756); format: functional; conditions: Rattus norvegicus;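 also: cell death triggered by IL-1 beta plus TNF-alpha plus IFN-gamma mixture; protective hits raise ATP signal compared with cytokine alone wells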
[3] = HEK-293T cell viability reduction – luminescence, B-cell screen hits, cytotoxicity control for BCR NF-kB inhibitor project, dose response (AID 489021); format: functional, cell-based;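 also: HEK-293T cells carrying an NF-kB luciferase reporter; cells exposed to compound for about 14 hours before viability readout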
[4] = viability loss in THP-1 monocytes – THP-1 cells, cytotoxicity control for Vif-APOBEC3G degradation inhibitor project, dose response (AID 1117359); format: functional; conditions: THP-1
[5] = target: Disintegrin and metalloproteinase domain-containing protein 17 (Homo sapiens, UniProt P78536); assay: exosite inhibitors of ADAM17, dose response, biochemical (AID 743260)
Disintegrin and metalloproteinase domain-containing protein 17, sequence (P78536 whole entry, the tested form may be a part): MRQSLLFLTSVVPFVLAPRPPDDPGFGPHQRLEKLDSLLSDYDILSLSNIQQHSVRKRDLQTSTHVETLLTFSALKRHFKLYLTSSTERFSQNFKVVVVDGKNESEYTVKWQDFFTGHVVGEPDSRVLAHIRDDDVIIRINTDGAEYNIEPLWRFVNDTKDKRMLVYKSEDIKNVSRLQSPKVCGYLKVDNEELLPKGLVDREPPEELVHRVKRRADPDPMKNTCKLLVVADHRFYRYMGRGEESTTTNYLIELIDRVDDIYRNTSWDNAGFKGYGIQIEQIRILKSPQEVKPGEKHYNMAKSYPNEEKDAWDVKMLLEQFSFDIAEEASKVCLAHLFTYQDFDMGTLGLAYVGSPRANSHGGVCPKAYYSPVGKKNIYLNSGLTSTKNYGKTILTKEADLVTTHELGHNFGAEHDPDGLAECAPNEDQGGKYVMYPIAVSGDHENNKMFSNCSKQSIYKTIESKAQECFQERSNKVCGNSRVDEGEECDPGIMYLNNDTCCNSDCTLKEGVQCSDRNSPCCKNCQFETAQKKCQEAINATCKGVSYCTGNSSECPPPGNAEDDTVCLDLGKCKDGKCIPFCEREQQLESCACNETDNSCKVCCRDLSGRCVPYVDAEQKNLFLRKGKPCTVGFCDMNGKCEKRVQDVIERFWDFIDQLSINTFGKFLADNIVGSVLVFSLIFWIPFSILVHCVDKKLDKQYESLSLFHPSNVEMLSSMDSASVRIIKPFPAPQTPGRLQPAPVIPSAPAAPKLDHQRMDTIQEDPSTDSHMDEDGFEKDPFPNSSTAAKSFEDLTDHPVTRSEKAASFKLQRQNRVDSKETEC

[6] = inhibition of ADAM10 peptide cleavage – biochemical, FRET peptide substrate, recombinant human ADAM10, selectivity assay for ADAM17 exosite inhibitor project, dose response (AID 743259);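 also: ADAM10 enzyme cleaving a FRET peptide substrate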
[7] = Luminescence Cell-Based Dose Retest to Confirm Inhibitors of Cancer Stem Cells. [Related pubchem assays (depositor defined):AID2717, AID2721]; format: functional; conditions: Homo sapiens
[8] = viability loss in human Jurkat cells – cell-based, luminescence, cytotoxicity control for P. falciparum gametocyte viability project, dose response (AID 1117277); format: functional;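 also: potency reflects loss of cellular ATP meaning fewer viable cells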
[9] = viability inhibitors of stage V gametocytes – luminescence, dose response (AID 1117278); format: functional, cell-based;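 also: gametocytes exposed to compound for 24 hours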
[10] = Luminescence Cell-Based Dose Response HTS to Identify Activators of Luciferase Translation or Activity in H4 […] Cells. [Related pubchem assays: 1829 (Project Summary), 1814 (Primary HTS)]; format: functional
[11] = Luminescence Cell-Based Dose Confirmation HTS to Identify Activators of 5'UTR Stem-Loop Driven Alpha-Synuclein mRNA Translation in H4 Neuroglioblastoma Cells. [Related pubchem assays: 1829 (Project Summary), 1814 (Primary HTS)]; format: functional
HeLa = assay: ATP-based viability loss in HeLa cells – cell-based, CellTiter-Glo luminescence, cherry-pick samples, cytotoxicity control for MITF activator project, dose response (AID 540259); format: functional; conditions: Homo sapiens
H4 = assay: Luminescence Cell-Based Dose Response HTS to Identify Activators of 5'UTR Stem-Loop Driven Prion Protein mRNA Translation in H4 Neuroglioblastoma Cells. [Related pubchem assays: 1829 (Project Summary), 1814 (Primary HTS)]; format: functional; conditions: Homo sapiens
[12] = viability of HCT116 lacking mutant beta-catenin – cell-based, human colon tumor, dose response (AID 1045); format: functional;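 also: HCT116 colon tumor cells with beta catenin knocked out; cells exposed to compound for 60 hours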
[13] = viability of PTEN-deleted HCT116 cells – cell-based, HCT116 PTEN knockout, dose response (AID 1047); format: functional;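 also: HCT116 colon tumor cells with PTEN knocked out; cells exposed to compound for 60 hours before readout; potency for loss of cell viability measured by luminescence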
[14] = viability of uninfected HEp-2 cells – cell-based, HTS, cytotoxicity control for RSV inhibitor project, dose response (AID 2410); format: functional; conditions: human respiratory syncytial virus
H9c2 = assay: cells; format: functional, cell-based; conditions: Rattus norvegicus, H9c2, Myocardium

## O=C(CCN1CCOCC1)NCC(=O)Nc1ccc(Br)cc1C(=O)c1ccccc1
[1]
  IC50: > 100 µM (active)

## CC(=O)CSc1ccc(-c2nc3ccccc3[nH]2)cn1
[2]
  IC50: 8.09 µM (active)
INS1
  AC50: 5.24 µM (active)

## CCCS(=O)(=O)Nc1cccc(-c2ccc3nnc(C)n3n2)c1
[3]
  IC50: > 80 µM (inactive)

## COc1ccc(CC(=O)OCC(=O)NCc2ccco2)cc1OC
[4]
  CC50: > 40 µM (active)
[1]
  IC50: > 100 µM (active)

## O=C(Nc1cccc(-c2csc(-c3ccccc3)n2)c1)c1cccs1
[5]
  IC50: > 69.5 µM (inactive)
[6]
  IC50: > 69.5 µM (inactive)
[7]
  AC50: 3.38 µM (active)

## O=C(O)c1ccc(COc2c(F)c(F)c(F)c(F)c2F)o1
[1]
  IC50: > 100 µM (active)

## Cc1ccc(-c2csc3ncn(CC(=O)N4CCOCC4)c(=O)c23)cc1
[8]
  IC50: > 83.3 µM (inactive)
[9]
  IC50: > 109 µM (inactive)

## Cc1ccccc1C(=O)O/N=C(\N)Cc1cccs1
[10]
  EC50: 67.6 µM (active)
[11]
  EC50: > 120 µM (not active)
HeLa
  AC50: 32 µM (active)
H4
  EC50: 6.9 µM (active)

## CCc1ccc(-c2nc(CN3CCC(C(=O)NCCN(CC)c4ccccc4)CC3)c(C)o2)cc1
[12]
  EC50: 6.8 µM (active)
[13]
  EC50: 7.82 µM (active)

## CCCn1nnc2sc3c(c2c1=O)CCC(C)C3 (stereo not given)
[10]
  EC50: 0.528 µM (active)
[11]
  EC50: 41.1 µM (active)
HeLa
  AC50: 55.9 µM (active)
[14]
  CC50: > 50 µM (active)
H4
  EC50: 16.2 µM (active)

## CC(=O)Nc1ccc(Nc2nc(-c3sc(NC(C)=O)nc3C)cs2)cc1
[3]
  IC50: 20.6 µM (inactive)
H9c2
  IC50: > 79 µM (inactive)

## Cc1csc(NC(=O)CCc2c(C)nc3cc(-c4ccc(Cl)cc4)nn3c2C)n1
[3]
  IC50: > 80 µM (inactive)

## Cc1cccc2c1-c1sc(C(=O)N3CCCCC3)cc1CO2
HeLa
  AC50: > 350 µM (inactive)

## COc1ccc(/C=C/c2noc(-c3ccccc3OC(C)=O)n2)cc1
[2]
  IC50: 3.29 µM (active)

## Brc1ccc2nc(N3CCN(c4ccccc4)CC3)sc2c1
[8]
  IC50: > 83.2 µM (inactive)
[9]
  IC50: > 109 µM (inactive)
